# According to the supplement of paper PMC11061612:
# How the values were obtained:
# [1] = compound: CC(=O)c1c(C)c2cnc(Nc3ccc(N4CCNCC4)cn3)nc2n(C2CCCC2)c1=O [Palbociclib]; conditions: max 10 µM
# How it was run: (§1)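 Cancer cell lines in 1536-well plates (7.5 μl DMEM/F12 or RPMI, 10% FBS) were held 24 hours at 37°C and 5% CO2 and then dosed for 72 hours at a final DMSO of typically 0.2%. Viability was taken from CellTiter-Glo 2.0 luminescence, scaled between blank-well and DMSO-well means. Curves were fitted as two-parameter logistic models with a non-linear mixed effects model, from which the single-agent IC50 was taken.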
# [2] = compound: Cc1cc2ncnn2cc1Nc1ncc2c(n1)n(C1CCOCC1)c(=O)n2C [AZD7648]; conditions: max 10 µM
# How it was run: as §1
# [3] = compound: CN(CC[C@H](CSC1=CC=CC=C1)NC2=C(C=C(C=C2)S(=O)(=O)NC(=O)C3=CC=C(C=C3)N4CCC(CC4)[C@H](C5=CC=CC=C5C6=CC=C(C=C6)Cl)O)S(=O)(=O)C(F)(F)F)CCO [AZD4320]; conditions: max 1 µM
# How it was run: as §1
# [4] = compound: CS(=O)(=O)CCNCc1ccc(-c2ccc3ncnc(Nc4ccc(OCc5cccc(F)c5)c(Cl)c4)c3c2)o1 [Lapatinib]; conditions: max 10 µM
# How it was run: as §1
# [5] = compound: CN(C)CCCOc1ccc(-c2ccc3ncc4c(c3c2)n(C2CCOCC2)c(=O)n4C)cn1 [AZD0156]; conditions: max 3 µM
# How it was run: as §1
# [6] = compound: C[C@@H](c1ccc2nccn2c1)n1nnc2ncc(-c3cnn(C)c3)nc21 [Savolitinib]; conditions: max 1 µM
# How it was run: as §1
# [7] = compound: C1CN(CCC1(C(=O)N[C@@H](CCO)C2=CC=C(C=C2)Cl)N)C3=NC=NC4=C3C=CN4 [Capivasertib]
# How it was run: as §1
# [8] = compound: CC(=O)Nc1cccc(-n2c(=O)n(C3CC3)c(=O)c3c(Nc4ccc(I)cc4F)n(C)c(=O)c(C)c32)c1 [Trametinib]; conditions: max 1 µM
# How it was run: as §1
# [9] = compound: COc1cc2ncnc(Nc3ccc(F)c(Cl)c3)c2cc1OCCCN1CCOCC1 [Gefitinib]; conditions: max 10 µM
# How it was run: as §1
# [10] = compound: C[C@@H](Nc1cc(F)cc(F)c1)c1cc(C(=O)N(C)C)cc2c(=O)cc(N3CCOCC3)oc12 [AZD8186]; conditions: max 3 µM
# How it was run: as §1
# [11] = compound: CC1(C)CCC(CN2CCN(c3ccc(C(=O)NS(=O)(=O)c4ccc(NCC5CCOCC5)c([N+](=O)[O-])c4)c(Oc4cnc5[nH]ccc5c4)c3)CC2)=C(c2ccc(Cl)cc2)C1 [Venetoclax]; conditions: max 1 µM
# How it was run: as §1
# [12] = compound: CCN(CCO)CCCOc1ccc2c(Nc3cc(CC(=O)Nc4cccc(F)c4)[nH]n3)ncnc2c1 [AZD2811]; conditions: max 1 µM
# How it was run: as §1
# [13] = compound: COc1nnc2ccc(N3CCC(c4ccc(OCCN5CCN(C)C(=O)[C@H]5C)cc4)CC3)nn12 [AZD5153]; conditions: max 1 µM
# How it was run: as §1
# [14] = compound: CC1=C(C(=CC=C1)Cl)NC(=O)C2=CN=C(S2)NC3=CC(=NC(=N3)C)N4CCN(CC4)CCO [Dasatinib]; conditions: max 2 µM
# How it was run: as §1
# [15] = compound: COc1cccc2c1C(=O)c1c(O)c3c(c(O)c1C2=O)C[C@@](O)(C(=O)CO)C[C@@H]3O[C@H]1C[C@H](N)[C@H](O)[C@H](C)O1 [Doxorubicin]; conditions: max 1 µM
# How it was run: as §1
# [16] = compound: COc1cc(Nc2ncc3c(n2)-c2ccc(Cl)cc2C(c2c(F)cccc2OC)=NC3)ccc1C(=O)O [Alisertib]; conditions: max 10 µM
# How it was run: as §1
# [17] = compound: C[C@@H](Oc1cc(-c2cnn(C3CCNCC3)c2)cnc1N)c1c(Cl)ccc(F)c1Cl [Crizotinib]; conditions: max 10 µM
# How it was run: as §1
# [18] = compound: Cc1c2c(nn1C)CSCc1cc(n(C)n1)CSc1cc(c3ccccc3c1)OCCCc1c(C(=O)O)n(C)c3c-2c(Cl)ccc13 [AZD5991]; conditions: max 1 µM
# How it was run: as §1
# [19] = compound: O=C(c1cc(Cc2n[nH]c(=O)c3ccccc23)ccc1F)N1CCN(C(=O)C2CC2)CC1 [Olaparib]
# How it was run: as §1
# [20] = compound: CC1=CN2[C@@H](C1)C=NC3=CC(=C(C=C3C2=O)OC)OCCCCCOC4=C(C=C5C(=C4)N=C[C@@H]6CC(=CN6C5=O)C)OC [SG3199]; conditions: max 0.001 µM
# How it was run: as §1
# [21] = compound: C=CCn1c(=O)c2cnc(Nc3ccc(N4CCN(C)CC4)cc3)nc2n1-c1cccc(C(C)(C)O)n1 [AZD1775]; conditions: max 3 µM
# How it was run: as §1
# [22] = compound: Cn1cnc2c(F)c(Nc3ccc(Br)cc3Cl)c(C(=O)NOCCO)cc21 [Selumetinib]; conditions: max 10 µM
# How it was run: as §1
# [23] = compound: COc1cccc(OCCCN)c1-c1cc(Nc2cnc(C#N)cn2)n[nH]1 [Prexasertib]; conditions: max 1 µM
# How it was run: as §1
# [24] = compound: CCc1c2c(nc3ccc(O)cc13)-c1cc3c(c(=O)n1C2)COC(=O)[C@]3(O)CC [SN-38]; conditions: max 0.3 µM
# How it was run: as §1
# [25] = compound: CC(C)n1c(=O)n(C)c2cnc3cc(F)c(-c4ccc(OCCCN5CCCCC5)nc4)cc3c21 [AZD1390]; conditions: max 0.3 µM
# How it was run: as §1
# [26] = compound: Cc1nc(-c2cn3c(n2)-c2ccc(-c4cnn(C(C)(C)C(N)=O)c4)cc2OCC3)n(C(C)C)n1 [Taselisib]; conditions: max 10 µM
# How it was run: as §1
# [27] = compound: C[C@@H]1COCCN1C2=NC(=NC(=C2)C3(CC3)[S@](=N)(=O)C)C4=C5C=CNC5=NC=C4 [AZD6738]; conditions: max 10 µM
# How it was run: as §1
Cell Line,"IC50, cell viability 72 h [1] [µM]","IC50, cell viability 72 h [2] [µM]","IC50, cell viability 72 h [3] [µM]","IC50, cell viability 72 h [4] [µM]","IC50, cell viability 72 h [5] [µM]","IC50, cell viability 72 h [6] [µM]","IC50, cell viability 72 h ([7]; max 10 µM) [µM]","IC50, cell viability 72 h [8] [µM]","IC50, cell viability 72 h [9] [µM]","IC50, cell viability 72 h [10] [µM]","IC50, cell viability 72 h [11] [µM]","IC50, cell viability 72 h [12] [µM]","IC50, cell viability 72 h [13] [µM]","IC50, cell viability 72 h [14] [µM]","IC50, cell viability 72 h [15] [µM]","IC50, cell viability 72 h [16] [µM]","IC50, cell viability 72 h [17] [µM]","IC50, cell viability 72 h [18] [µM]","IC50, cell viability 72 h ([19]; max 10 µM) [µM]","IC50, cell viability 72 h [20] [µM]","IC50, cell viability 72 h [21] [µM]","IC50, cell viability 72 h [22] [µM]","IC50, cell viability 72 h [23] [µM]","IC50, cell viability 72 h [24] [µM]","IC50, cell viability 72 h [25] [µM]","IC50, cell viability 72 h [26] [µM]","IC50, cell viability 72 h [27] [µM]","IC50, cell viability 72 h ([7]; max 3 µM) [µM]","IC50, cell viability 72 h ([19]; max 3 µM) [µM]"
HCC1187 (Breast Carcinoma),> 10,> 10,> 1,> 10,> 3,> 1,> 10,> 1,> 10,> 3,> 1,0.0294,> 1,> 2,> 1,0.114,4.57,0.0877,> 10,> 0.001,1.06,> 10,0.362,> 0.3,> 0.3,> 10,> 10,,
RD (Rhabdomyosarcoma),> 10,> 10,0.706,> 10,> 3,> 1,> 10,> 1,> 10,> 3,> 1,> 1,0.951,> 2,> 1,> 10,> 10,> 1,> 10,> 0.001,1.03,> 10,0.465,> 0.3,> 0.3,2.27,> 10,,
MOLM-13 (Acute Myeloid Leukemia),0.605,> 10,0.00677,> 10,> 3,> 1,1.87,0.0242,4.32,> 3,0.0235,0.0189,0.0289,0.932,0.04,0.0527,1.23,0.0465,6.77,> 0.001,0.16,4.04,0.00531,0.00355,> 0.3,6.31,0.584,,
BICR10 (Oral Cavity Carcinoma),,,,,> 3,,,,,,,,,,,,,,,,0.413,,,,,,,2.52,> 3
G-361 (Melanoma),> 10,> 10,> 1,8,> 3,> 1,> 10,0.0146,> 10,> 3,> 1,> 1,0.277,> 2,0.816,> 10,8.66,0.306,> 10,> 0.001,1.59,1.54,0.149,> 0.3,> 0.3,7.24,> 10,,
PC-3 (Prostate Carcinoma),> 10,> 10,> 1,> 10,> 3,> 1,> 10,> 1,> 10,> 3,> 1,> 1,> 1,> 2,> 1,> 10,> 10,> 1,> 10,> 0.001,> 3,> 10,> 1,0.0827,> 0.3,> 10,> 10,,
CHSA8926 (Chondrosarcoma),> 10,> 10,> 1,> 10,> 3,> 1,> 10,,> 10,2.24,> 1,> 1,> 1,0.0608,0.703,> 10,9.16,> 1,> 10,> 0.001,1.27,> 10,> 1,> 0.3,> 0.3,1.52,> 10,,
SU-DHL-5 (B-Cell Non-Hodgkin's Lymphoma),0.559,6.58,> 1,6.61,> 3,> 1,0.305,1,> 10,0.16,> 1,0.00984,0.0423,0.0108,0.013,0.359,1.65,0.00862,3.38,> 0.001,0.363,> 10,0.00489,0.00138,> 0.3,0.0486,0.457,,
8505C (Thyroid Gland Carcinoma),> 10,> 10,> 1,> 10,> 3,> 1,> 10,> 1,> 10,> 3,> 1,> 1,> 1,> 2,0.565,> 10,> 10,> 1,> 10,> 0.001,1.6,> 10,0.829,0.0236,> 0.3,> 10,> 10,,
KMS-12-BM (Plasma Cell Myeloma),3.66,> 10,0.0173,7.08,> 3,> 1,9.31,> 1,> 10,> 3,0.0164,> 1,0.0134,> 2,0.891,3.57,3.54,0.0139,> 10,> 0.001,0.329,> 10,0.017,0.0248,> 0.3,2.43,,,
HCC1419 (Breast Carcinoma),,> 10,> 1,,> 3,> 1,,> 1,> 10,> 3,> 1,> 1,> 1,,> 1,> 10,,> 1,> 10,> 0.001,> 3,> 10,> 1,> 0.3,> 0.3,7.76,> 10,> 3,
